Data set [1] concerns the target T1, hALOX12B (Homo sapiens, UniProt O75342).
T1 sequence (O75342 1-701): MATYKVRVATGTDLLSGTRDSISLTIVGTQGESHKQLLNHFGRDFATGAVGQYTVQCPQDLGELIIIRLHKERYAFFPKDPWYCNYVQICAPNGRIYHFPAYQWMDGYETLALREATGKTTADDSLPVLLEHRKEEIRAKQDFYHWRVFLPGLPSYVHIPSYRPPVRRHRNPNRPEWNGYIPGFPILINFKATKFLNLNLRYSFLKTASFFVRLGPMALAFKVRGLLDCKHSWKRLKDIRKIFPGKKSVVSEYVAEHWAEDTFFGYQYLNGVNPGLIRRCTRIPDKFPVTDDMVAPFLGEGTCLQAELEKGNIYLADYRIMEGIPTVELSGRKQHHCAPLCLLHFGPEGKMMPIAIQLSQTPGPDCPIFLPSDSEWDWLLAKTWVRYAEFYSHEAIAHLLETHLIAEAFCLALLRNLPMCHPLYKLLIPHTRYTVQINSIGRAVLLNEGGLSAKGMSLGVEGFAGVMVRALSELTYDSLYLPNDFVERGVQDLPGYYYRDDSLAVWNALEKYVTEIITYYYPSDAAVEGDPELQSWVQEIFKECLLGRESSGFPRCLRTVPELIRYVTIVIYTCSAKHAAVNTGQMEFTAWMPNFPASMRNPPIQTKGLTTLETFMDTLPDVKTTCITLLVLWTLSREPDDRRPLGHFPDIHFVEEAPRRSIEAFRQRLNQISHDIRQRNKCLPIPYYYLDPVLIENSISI
Description: biochemical. As to conditions: read-out: % inhibition of ALOX12B enzyme activity.

Data set [2] can be described thus: in vitro. As to conditions: mouse, liver microsomes.
Data set [3] can be described thus: in vitro. As to conditions: mouse, liver microsomes. The source holds these as a separate data set.
Data set [4] concerns the target T2, hERG (Homo sapiens, UniProt Q12809). Description: in vitro. Conditions: HEK.
Data set [5] addresses T2, hERG. Description: in vitro. As to conditions: HEK. The source holds these as a separate data set.
Data set [6] addresses T2, hERG. Description: whole-cell patch clamp, IKr current. It counts as cell-based. Conditions: test concentrations 0.3 to 30 µM; HEK cells stably transfected. In general terms: Patch clamp records ionic current or voltage across a cell membrane.

T2 sequence (Q12809 whole entry): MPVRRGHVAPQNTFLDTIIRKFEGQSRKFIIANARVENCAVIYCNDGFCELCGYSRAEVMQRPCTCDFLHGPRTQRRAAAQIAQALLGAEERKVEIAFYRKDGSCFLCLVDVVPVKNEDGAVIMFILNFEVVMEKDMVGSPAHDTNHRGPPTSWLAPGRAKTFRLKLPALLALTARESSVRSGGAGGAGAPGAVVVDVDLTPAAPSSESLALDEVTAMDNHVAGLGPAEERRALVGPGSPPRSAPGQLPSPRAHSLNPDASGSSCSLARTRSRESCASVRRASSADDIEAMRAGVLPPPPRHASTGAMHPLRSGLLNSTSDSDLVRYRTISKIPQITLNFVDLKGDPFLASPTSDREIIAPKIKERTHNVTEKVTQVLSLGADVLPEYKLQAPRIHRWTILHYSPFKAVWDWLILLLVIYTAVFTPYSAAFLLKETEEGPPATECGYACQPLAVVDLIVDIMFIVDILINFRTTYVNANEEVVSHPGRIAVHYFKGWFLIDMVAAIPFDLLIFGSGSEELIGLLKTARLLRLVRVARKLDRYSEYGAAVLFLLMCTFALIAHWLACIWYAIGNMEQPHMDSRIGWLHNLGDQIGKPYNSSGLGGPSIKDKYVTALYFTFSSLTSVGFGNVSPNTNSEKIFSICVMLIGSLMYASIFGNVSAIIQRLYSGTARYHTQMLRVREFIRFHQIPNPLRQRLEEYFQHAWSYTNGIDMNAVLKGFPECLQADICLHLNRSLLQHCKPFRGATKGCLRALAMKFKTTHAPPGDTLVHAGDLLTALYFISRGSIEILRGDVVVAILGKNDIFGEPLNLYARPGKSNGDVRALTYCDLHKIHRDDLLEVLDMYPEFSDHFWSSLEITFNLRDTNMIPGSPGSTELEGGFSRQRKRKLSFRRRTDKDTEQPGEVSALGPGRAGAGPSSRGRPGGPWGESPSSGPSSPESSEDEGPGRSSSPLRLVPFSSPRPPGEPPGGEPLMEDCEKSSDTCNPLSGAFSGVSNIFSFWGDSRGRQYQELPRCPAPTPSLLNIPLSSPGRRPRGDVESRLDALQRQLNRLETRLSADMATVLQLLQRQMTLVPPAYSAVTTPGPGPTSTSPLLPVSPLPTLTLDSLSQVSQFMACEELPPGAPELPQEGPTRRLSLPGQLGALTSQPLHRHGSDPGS

Consider `Nc1ccc(O)cc1-c1cc(=O)c2ccccc2o1` [6a, 2-(2-amino-5-hydroxyphenyl)-4H-chromen-4-one], for which, in data set [1], the inhibition at 10 µM is about 23%, the inhibition at 100 µM was about 40% and the inhibition at 200 µM is about 52%. The half-life at 5 µM in data set [2] is 8.25 h. This molecule also displayed a microsomal CLint at 5 µM in data set [3] of 5.6 µL/min/mg. Moreover, in data set [4], the inhibition at 0.3 µM came out at 13.3%, the inhibition at 1 µM is 14.1%, the inhibition at 3 µM was 10.6% and the inhibition at 10 µM was determined as 10.9%. Besides, the inhibition at 30 µM in data set [4] came out at 9.05%. For the same molecule, in data set [5], the inhibition at 0.1 µM was -8.53%.

For `Nc1ccc(O)cc1-c1cc(=O)c2ccccc2o1` [6a], the “% reduction of hERG current at 0.3 to 30 μM” value in data set [6] is 9-14%.

What is called inhibition is the relative decrease from the control value, in per cent. Broadly, the half-life is the time in which the quantity being followed falls by half. Lower therefore signals rapid decline. What is called microsomal CLint is a measure of how fast metabolising enzymes remove a compound, apart from limits set by blood flow. Read a high microsomal CLint as rapid turnover.

The values are drawn from article doi:10.1101/2025.06.09.658245v1 (biorxiv, 2025).
